# According to patent US4406879A, “Phthalazinol preparation” (Nippon Kayaku Kabushiki Kaisha, priority 1979, dated 1983):
# What was measured:
# [1] = Water-solubility and wettability of Phthalazinol; format: physicochemical
# alcohol dehydrogenase = experiment: Metabolism of Phthalazinol with alcohol dehydrogenase in the living body; format: in vivo; conditions: before it arrives at the blood circulation system
# [2] = Oral absorption and blood content of Phthalazinol (first pass effect); format: in vivo
smiles,measurement,setting,value
"CCOC(=O)c1c(C)cc2c(CO)n[nH]c(=O)c2c1C [Phthalazinol, 6,8-Dimethyl-7-ethoxycarbonyl-4-hydroxymethyl-1-phthalazone]",wettability with water,[1],low wettability
same,solubility,[1]; water at 25° C.,~200 µg/mL
same,metabolism (4-hydroxymethyl converted into inactive 4-carboxyl group),alcohol dehydrogenase,readily metabolized
same,absorption velocity,[2]; Phthalazinol subjected to the tests at present,low absorption velocity
same,Fa,"[2]; in vivo, po, administered orally",~100%
same,actual Phthalazinol content of the blood relative to the theoretical value,[2]; theoretical value assumes no metabolism and complete absorption,several tenths
